The values below are quoted from earlier work in patent publication US12090156B2, “Application of CB-839 in preparation of drug for inhibiting corneal neovascularization (CNV)” (Institute of Ophthalmology Affiliated to Shandong First …, priority 2022, dated 2024).

SMILES strings stand for the structures.

The subject of the data set is cancer cell lines such as triple-negative breast cancer (TNBC), lung adenocarcinoma, chondrosarcoma, and lymphoma cell lines.

For `O=C(Cc1cccc(OC(F)(F)F)c1)Nc1ccc(CCCCc2nnc(NC(=O)Cc3ccccn3)s2)nn1` [CB-839], the antiproliferative activity result is given as “significant antiproliferative activity”.
